According to ChEMBL document CHEMBL5375952, “Discovery of Novel 8-Hydroxyquinoline Derivatives with Potent In Vitro and In Vivo Antifungal Activity” (J Med Chem, 2023):
Activity calls are given as the source filed them. No cut-off for these calls is given here.

Legend:
[1] = test system: Candida albicans; test: Inhibition of biofilm formation of Candida albicans SC5314 incubated for 24 hrs by XTT assay; format: functional, organism-based; details: dose <= 16.0 µg/ml
[2] = test system: Candida albicans; test: Synergistic antifungal activity against FLC-resistant Candida albicans 710419 assessed as MIC of FLC incubated for 48 hrs by broth microdilution method; format: functional
[3] = test system: Candida albicans; test: Synergistic antifungal activity against FLC-resistant Candida albicans 819 assessed as MIC of FLC incubated for 48 hrs by broth microdilution method; format: functional
[4] = test system: Candida albicans; test: Synergistic antifungal activity against FLC-resistant Candida albicans 305 assessed as fungal growth inhibition incubated for 48 hrs in presence of FLC by broth microdilution method; format: functional
[5] = test system: Candida albicans; test: Synergistic antifungal activity against FLC-resistant Candida albicans 379 assessed as MIC of FLC incubated for 48 hrs by broth microdilution method; format: functional
[6] = test system: Candida albicans; test: Inhibition of biofilm formation of Candida albicans SC5314 at 8 ug/ml incubated for 24 hrs by XTT assay relative to control; format: functional
[7] = test system: Candida albicans; test: Synergistic antifungal activity against FLC-resistant Candida albicans 512681 assessed as fractional inhibitory concentration index incubated for 48 hrs in presence of FLC by broth microdilution method; format: functional
[8] = test system: Candida albicans; test: Synergistic antifungal activity against FLC-resistant Candida albicans 379 assessed as fungal growth inhibition incubated for 48 hrs in presence of FLC by broth microdilution method; format: functional
[9] = Oral bioavailability in Sprague-Dawley rat at 5 mg/kg by LC-MS/MS analysis; format: ADME, organism-based; details: in vivo
[10] = test system: Candida albicans; test: Synergistic antifungal activity against FLC-resistant Candida albicans 8 assessed as MIC of FLC incubated for 48 hrs by broth microdilution method; format: functional
[11] = test system: Candida albicans; test: Synergistic antifungal activity against FLC-resistant Candida albicans 540 assessed as MIC of FLC incubated for 48 hrs by broth microdilution method; format: functional
[12] = test system: Candida albicans; test: Synergistic antifungal activity against FLC-resistant Candida albicans 64548 assessed as fungal growth inhibition incubated for 48 hrs in presence of FLC by broth microdilution method; format: functional
[13] = test system: Candida albicans; test: Synergistic antifungal activity against FLC-resistant Candida albicans 17 assessed as fractional inhibitory concentration index incubated for 48 hrs in presence of FLC by broth microdilution method; format: functional
[14] = Cmax in Sprague-Dawley rat at 5 mg/kg, po by LC-MS/MS analysis; format: ADME, organism-based; set-up: dose 5 mg/kg, route po; details: in vivo
[15] = test system: Candida albicans; test: Synergistic antifungal activity against FLC-resistant Candida albicans 538 assessed as fractional inhibitory concentration index incubated for 48 hrs in presence of FLC by broth microdilution method; format: functional
[16] = test system: Candida albicans; test: Synergistic inhibition of biofilm formation of Candida albicans SC5314 at 2 ug/ml incubated for 24 hrs in presence of 0.0625 ug/ml of FLC by XTT assay relative to control; format: functional
[17] = test system: Candida albicans; test: Synergistic antifungal activity against FLC-resistant Candida albicans 249 assessed as fractional inhibitory concentration index incubated for 48 hrs in presence of FLC by broth microdilution method; format: functional
[18] = AUC (0 to infinity) in Sprague-Dawley rat at 5 mg/kg, po by LC-MS/MS analysis; format: ADME, organism-based; set-up: dose 5 mg/kg, route po; details: in vivo
[19] = test system: Candida albicans; test: Synergistic antifungal activity against FLC-resistant Candida albicans 1221 assessed as fractional inhibitory concentration index incubated for 48 hrs in presence of FLC by broth microdilution method; format: functional
[20] = test system: Candida albicans; test: Synergistic antifungal activity against FLC-resistant Candida albicans 710513 assessed as MIC of FLC incubated for 48 hrs by broth microdilution method; format: functional
[21] = test system: Candida albicans; test: Synergistic antifungal activity against FLC-resistant Candida albicans 241 assessed as MIC of FLC incubated for 48 hrs by broth microdilution method; format: functional
[22] = test system: Candida albicans; test: Inhibition of hypha formation in Candida albicans SC5314 at 4 ug/ml incubated for 3 hrs by inverted phase contrast microscopy; format: functional, organism-based; details: dose 4.0 µg/ml
[23] = test system: Candida albicans; test: Synergistic antifungal activity against FLC-resistant Candida albicans 710506 assessed as fractional inhibitory concentration index incubated for 48 hrs in presence of FLC by broth microdilution method; format: functional
[24] = test system: Candida albicans; test: Synergistic antifungal activity against FLC-resistant Candida albicans 710419 assessed as fungal growth inhibition incubated for 48 hrs in presence of FLC by broth microdilution method; format: functional
[25] = test system: Candida albicans; test: Synergistic antifungal activity against FLC-resistant Candida albicans 100 assessed as MIC of FLC incubated for 48 hrs by broth microdilution method; format: functional
[26] = test system: Candida albicans; test: Synergistic antifungal activity against FLC-resistant Candida albicans 64548 assessed as fractional inhibitory concentration index incubated for 48 hrs in presence of FLC by broth microdilution method; format: functional
[27] = test system: Candida albicans; test: Synergistic antifungal activity against FLC-resistant Candida albicans 8 assessed as fractional inhibitory concentration index incubated for 48 hrs in presence of FLC by broth microdilution method; format: functional
[28] = test system: Candida albicans; test: Synergistic antifungal activity against FLC-resistant Candida albicans 395 assessed as MIC of FLC incubated for 48 hrs by broth microdilution method; format: functional
[29] = Tmax in Sprague-Dawley rat at 5 mg/kg, po by LC-MS/MS analysis; format: ADME, organism-based; details: in vivo
[30] = test system: Candida albicans; test: Synergistic antifungal activity against FLC-resistant Candida albicans 605141 assessed as fungal growth inhibition incubated for 48 hrs in presence of FLC by broth microdilution method; format: functional
[31] = Half life in Sprague-Dawley rat at 2 mg/kg, iv by LC-MS/MS analysis; format: ADME, organism-based; details: in vivo
[32] = test system: Candida albicans; test: Antifungal activity against Candida albicans SC5314 infected in C57BL/6 mouse assessed as mean fungal burden at 2 mg/kg, ip measured after 46 hrs in presence of FLC by plate count method (reference value: 6.902 log10CFU/ml); format: functional
[33] = test system: Candida albicans; test: Antifungal activity against Candida albicans 0304103 assessed as fungal growth inhibition at 4 to 8 ug/ml incubated for 48 hrs by time-kill assay; format: functional, organism-based; details: dose 4-8 µg/ml
[34] = test system: Candida albicans; test: Synergistic antifungal activity against FLC-resistant Candida albicans 395 assessed as fungal growth inhibition incubated for 48 hrs in presence of FLC by broth microdilution method; format: functional
[35] = test system: Candida albicans; test: Synergistic antifungal activity against Candida albicans 0304103 assessed as reduction in fungal growth at 8 ug/ml incubated for 48 hrs in presence of FLC by time-kill assay; format: functional; details: dose 8 µg/ml
[36] = test system: Candida albicans; test: Synergistic inhibition of hypha formation in Candida albicans SC5314 at 4 to 16 ug/ml incubated for 3 hrs in presence of FLC by inverted phase contrast microscopy; format: functional, organism-based; details: dose 4-16 µg/ml
[37] = test system: Candida albicans; test: Synergistic antifungal activity against FLC-resistant Candida albicans 710452 assessed as fungal growth inhibition incubated for 48 hrs in presence of FLC by broth microdilution method; format: functional
[38] = test system: Candida albicans; test: Synergistic antifungal activity against FLC-resistant Candida albicans 5740 assessed as fractional inhibitory concentration index incubated for 48 hrs in presence of FLC by broth microdilution method; format: functional
[39] = test system: Candida albicans; test: Synergistic antifungal activity against FLC-resistant Candida albicans 14 assessed as MIC of FLC incubated for 48 hrs by broth microdilution method; format: functional
[40] = test system: Candida albicans; test: Synergistic antifungal activity against FLC-resistant Candida albicans 512644 assessed as fungal growth inhibition incubated for 48 hrs in presence of FLC by broth microdilution method; format: functional
[41] = test system: Candida albicans; test: Synergistic antifungal activity against FLC-resistant Candida albicans 1221 assessed as MIC of FLC incubated for 48 hrs by broth microdilution method; format: functional

SMILES: OC(Cn1cncn1)(Cn1cncn1)c1ccc(F)cc1F [FLUCONAZOLE]
- inhibition [1]: Dose-Dependent Effect

SMILES: CCN(CC)c1ccc(C(NC(=O)C(C)C)c2ccc3cccnc3c2O)cc1 (stereo unspecified)
- MIC [2]: 0.25 µg/mL
- MIC [3]: 0.25 µg/mL
- MIC [4]: 0.016 µg/mL
- MIC [5]: 1 µg/mL
- inhibition at 8 µg/mL [6]: 16.5%
- fractional inhibitory concentration index (FICI) [7]: 0.127
- MIC [8]: 0.008 µg/mL
- bioavailability [9]: 5.7%
- MIC [10]: 0.031 µg/mL
- MIC [11]: 0.25 µg/mL
- MIC [12]: 0.031 µg/mL
- fractional inhibitory concentration index (FICI) [13]: 0.035
- Cmax [14]: 239 ng/mL
- fractional inhibitory concentration index (FICI) [15]: 0.047
- inhibition at 2 µg/mL [16]: 15.6%
- fractional inhibitory concentration index (FICI) [17]: 0.035
- AUC(0-inf) [18]: 158 ng·h/mL
- fractional inhibitory concentration index (FICI) [19]: 0.126
- MIC [20]: 1 µg/mL
- MIC [21]: 1 µg/mL
- inhibition [22]: inactive
- fractional inhibitory concentration index (FICI) [23]: 0.035
- MIC [24]: 0.031 µg/mL
- MIC [25]: 0.25 µg/mL
- fractional inhibitory concentration index (FICI) [26]: 0.063
- fractional inhibitory concentration index (FICI) [27]: 0.252
- MIC [28]: 0.25 µg/mL
- Tmax [29]: 0.25 h
- MIC [30]: 0.031 µg/mL
- half-life [31]: 5.28 h
- Activity [32]: 5.244 log10CFU/ml
- growth inhibition (GI) [33]: inactive
- MIC [34]: 0.016 µg/mL
- Activity [35]: >3 log10CFU/ml
- inhibition [36]: Active
- MIC [37]: 0.016 µg/mL
- fractional inhibitory concentration index (FICI) [38]: 0.312
- MIC [39]: 0.25 µg/mL
- MIC [40]: 0.008 µg/mL
- MIC [41]: 0.125 µg/mL
